Target: T1, aggregated amyloid-β (amyloid-β peptide, Human, 1-42) (Homo sapiens, UniProt P05067)
T1 construct: An amyloid-β peptide (Human, 1-42, Peptide Institute, Inc.); purchased Peptide Institute, Inc
Assay: thioflavin T (ThT) fluorescence assay of degrading aggregated amyloid
Format: biochemical
Conditions: final concentration 1, 10, or 100 μM, 37° C. for 7 days, vs 0.5% DMSO control; FIG. 1
Experimental: The direct activity of degrading aggregated amyloid by chlorogenic acid (5-CQA) was examined using a thioflavin T (ThT) fluorescence assay. An amyloid-β peptide (Human, 1-42, Peptide Institute, Inc.) was dissolved in dimethyl sulfoxide (DMSO) to 2.5 mM and was further adjusted to 250 μM with sterile water, followed by incubation at 37° C. for 7 days to promote the aggregation reaction. After the reaction, chlorogenic acid (5-CQA, Cayman Chemical Company) was added to the aggregated amyloid-β (10 mass %) at a final concentration of 1, 10, or 100 μM, followed by further incubation at 37° C. for 7 days. As a control, 0.5% DMSO, which was used as the solvent of the chlorogenic acid, was added. After the reaction, ThT (Sigma-Aldrich, final concentration: 5 μM) dissolved in 50 mM glycine buffer (pH 8.5) was added to the reaction solution in a 96-well plate (ThermoFisher Scientific), followed by a reaction at room temperature for 15 minutes while gently stirring under light shielding. After the reaction, fluorescence was detected at 450 nm (excitation) and 480 nm (emission) using a fluorescence plate reader (Ensight 3400, PerkinElmer Co., Ltd.) to measure the degree of aggregation of amyloid-β.

T1 sequence (P05067 672-713): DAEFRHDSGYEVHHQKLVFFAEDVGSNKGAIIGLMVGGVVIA

## O=C(/C=C/c1ccc(O)c(O)c1)O[C@@H]1C[C@](O)(C(=O)O)C[C@@H](O)[C@H]1O [chlorogenic acid, 5-caffeoylquinic acid]
  activity of degrading aggregated amyloid (degree of aggregation of amyloid-β, ThT fluorescence): has an activity of degrading aggregated amyloid in a dose-dependent manner
